Active and inactive are the calls of the source. The rule behind the calls is not given here.
Legend:
[1] = test system: Plasmodium yoelii nigeriensis; assay: Antimalarial activity against multi-drug resistant Plasmodium yoelii nigeriensis infected in swiss mouse model assessed as suppression of parasitemia at 96 mg/kg, po administered for 4 days relative to control; type: functional; settings: time 4 day
[2] = test system: Plasmodium yoelii nigeriensis; assay: Antimalarial activity against multi-drug resistant Plasmodium yoelii nigeriensis infected in swiss mouse model assessed as suppression of parasitemia at 48 mg/kg, po administered for 4 days relative to control; type: functional; settings: time 4 day
[3] = test system: Plasmodium yoelii nigeriensis; assay: Antimalarial activity against multi-drug resistant Plasmodium yoelii nigeriensis infected in swiss mouse model at 96 mg/kg, po administered for 4 days and measured within 6 to 8 days; type: functional, organism-based; settings: time 6-8 day
[4] = test system: Plasmodium yoelii nigeriensis; assay: Antimalarial activity against multi-drug resistant Plasmodium yoelii nigeriensis infected in swiss mouse model assessed as suppression of parasitemia at 24 mg/kg, po administered for 4 days relative to control; type: functional; settings: time 4 day
[5] = test system: Plasmodium yoelii nigeriensis; assay: Antimalarial activity against multi-drug resistant Plasmodium yoelii nigeriensis infected in swiss mouse model at 48 mg/kg, po administered for 4 days and measured within 6 to 8 days; type: functional, organism-based; settings: time 6-8 day
[6] = test system: Plasmodium yoelii nigeriensis; assay: Antimalarial activity against multi-drug resistant Plasmodium yoelii nigeriensis infected in swiss mouse model at 24 mg/kg, po administered for 4 days and measured within 6 to 8 days; type: functional, organism-based; settings: time 6-8 day
[7] = test system: Plasmodium yoelii nigeriensis; assay: Antimalarial activity against multi-drug resistant Plasmodium yoelii nigeriensis infected in swiss mouse model assessed as suppression of parasitemia at 12 mg/kg, po administered for 4 days relative to control; type: functional; settings: time 4 day
[8] = test system: Plasmodium yoelii nigeriensis; assay: Antimalarial activity against multi-drug resistant Plasmodium yoelii nigeriensis infected in swiss mouse model assessed as suppression of parasitemia at 6 mg/kg, po administered for 4 days relative to control; type: functional; settings: time 4 day
[9] = test system: Plasmodium yoelii nigeriensis; assay: Antimalarial activity against multi-drug resistant Plasmodium yoelii nigeriensis infected in swiss mouse model assessed as animal survival at 12 to 48 mg/kg, po administered for 4 days and measured after 28 days; type: functional; settings: dose 12-48 mg/kg, time 28 day
[10] = test system: Plasmodium yoelii nigeriensis; assay: Antimalarial activity against multi-drug resistant Plasmodium yoelii nigeriensis infected in swiss mouse model at 12 mg/kg, po administered for 4 days and measured within 6 to 8 days; type: functional, organism-based; settings: time 6-8 day

SMILES | Activity [1] | Activity [2] | Activity [3] | further results
C[C@H](c1ccc(Oc2ccc(-c3ccccc3)cc2)cc1)C1COC2(OO1)C1CC3CC(C1)CC2C3 (stereo partly drawn) | 100% | 100% | Active | 
C[C@@H](c1ccc(Oc2ccc3ccccc3c2)cc1)C1COC2(CCCC2)OO1 (stereo partly drawn) | 100% | 100% | Active | 
C[C@H](c1ccc(Oc2cccc3ccccc23)cc1)C1COC2(CCCCC2)OO1 (stereo partly drawn) | 100% |  |  | 
C[C@H](c1ccc(Oc2ccc(-c3ccccc3)cc2)cc1)C1COC2(CCCCC2)OO1 (stereo partly drawn) | 100% |  |  | 
C=C(c1ccc(Oc2ccccc2)cc1)C1COC2(CCCCC2)OO1 (stereo not drawn) | 100% |  |  | 
C[C@H](c1ccc(Oc2ccccc2)cc1)C1COC2(CCCC2)OO1 (stereo partly drawn) | 100% | 60% | Active | 
C[C@@H](c1ccc(Oc2cccc3ccccc23)cc1)C1COC2(OO1)C1CC3CC(C1)CC2C3 (stereo partly drawn) | 70% |  | inactive | 
C[C@@H](c1ccc(Oc2cccc3ccccc23)cc1)C1COC2(CCCC2)OO1 (stereo partly drawn) | 100% |  | inactive | 
C=C(c1ccc(Oc2cccc3ccccc23)cc1)C1COC2(OO1)C1CC3CC(C1)CC2C3 (stereo not drawn) | 93.15% |  | inactive | 
C=C(c1ccc(Oc2ccc3ccccc3c2)cc1)C1COC2(OO1)C1CC3CC(C1)CC2C3 (stereo not drawn) | 100% |  |  | 
C[C@H](c1ccc(Oc2ccccc2)cc1)C1COC2(OO1)C1CC3CC(C1)CC2C3 (stereo partly drawn) | 100% | 100% | Active | 
C=C(c1ccc(Oc2cccc3ccccc23)cc1)C1COC2(CCCC2)OO1 (stereo not drawn) | 100% | 100% | Active | Activity [4]: 100%; Activity [5]: Active; Activity [6]: inactive
C[C@H](c1ccc(Oc2ccc(-c3ccccc3)cc2)cc1)C1COC2(CCCC2)OO1 (stereo partly drawn) |  | 100% |  | Activity [4]: 100%; Activity [7]: 60%
C[C@@H](c1ccc(Oc2ccccc2)cc1)C1COC2(CCCCC2)OO1 (stereo partly drawn) | 100% |  | inactive | 
C[C@@H](c1ccc(Oc2ccccc2)cc1)C1COC2(CCCC2)OO1 (stereo partly drawn) | 80% |  | inactive | 
C[C@@H](c1ccc(Oc2ccc3ccccc3c2)cc1)C1COC2(OO1)C1CC3CC(C1)CC2C3 (stereo partly drawn) | 100% |  | inactive | 
C[C@@H](c1ccc(Oc2ccc(-c3ccccc3)cc2)cc1)C1COC2(OO1)C1CC3CC(C1)CC2C3 (stereo partly drawn) | 90% |  | inactive | 

SMILES | Activity [1] | Activity [2] | Activity [3] | further results
C[C@H](c1ccc(Oc2ccc3ccccc3c2)cc1)C1COC2(CCCC2)OO1 (stereo partly drawn) |  | 100% |  | Activity [4]: 100%; Activity [7]: 100%; Activity [8]: 60%; Survival [9]: >28 days; Activity [10]: Active
C=C(c1ccc(Oc2ccccc2)cc1)C1COC2(OO1)C1CC3CC(C1)CC2C3 (stereo not drawn) | 100% |  |  | 
C=C(c1ccc(Oc2ccc3ccccc3c2)cc1)C1COC2(CCCC2)OO1 (stereo not drawn) | 100% | 100% | Active | Activity [4]: 100%; Activity [5]: Active; Activity [6]: inactive
C=C(c1ccc(Oc2cccc3ccccc23)cc1)C1COC2(CCCCC2)OO1 (stereo not drawn) | 92.81% |  | inactive | 
C=C(c1ccc(Oc2ccc(-c3ccccc3)cc2)cc1)C1COC2(OO1)C1CC3CC(C1)CC2C3 (stereo not drawn) | 100% |  |  | 
C[C@H](c1ccc(Oc2ccccc2)cc1)C1COC2(CCCCC2)OO1 (stereo partly drawn) | 100% | 80% | Active | 
C=C(c1ccc(Oc2ccc(-c3ccccc3)cc2)cc1)C1COC2(CCCC2)OO1 (stereo not drawn) | 100% | 100% | Active | Activity [5]: inactive
C[C@H](c1ccc(Oc2cccc3ccccc23)cc1)C1COC2(OO1)C1CC3CC(C1)CC2C3 (stereo partly drawn) | 100% |  |  | 
C[C@H](c1ccc(Oc2ccc3ccccc3c2)cc1)C1COC2(OO1)C1CC3CC(C1)CC2C3 (stereo partly drawn) | 100% | 60% | Active | 
C[C@@H](c1ccc(Oc2cccc3ccccc23)cc1)C1COC2(CCCCC2)OO1 (stereo partly drawn) | 100% |  | inactive | 
C=C(c1ccc(Oc2ccc(-c3ccccc3)cc2)cc1)C1COC2(CCCCC2)OO1 (stereo not drawn) | 84.39% |  | inactive | 
C=C(c1ccc(Oc2ccccc2)cc1)C1COC2(CCCC2)OO1 (stereo not drawn) | 100% |  |  | 
C[C@@H](c1ccc(Oc2ccc(-c3ccccc3)cc2)cc1)C1COC2(CCCC2)OO1 (stereo partly drawn) | 100% |  | inactive | 
C[C@@H](c1ccc(Oc2ccccc2)cc1)C1COC2(OO1)C1CC3CC(C1)CC2C3 (stereo partly drawn) | 100% |  | inactive | 
C[C@@H](c1ccc(Oc2ccc(-c3ccccc3)cc2)cc1)C1COC2(CCCCC2)OO1 (stereo partly drawn) | 100% |  | inactive | 
CCO[C@H]1O[C@@H]2O[C@@]3(C)CC[C@H]4[C@H](C)CC[C@@H]([C@H]1C)[C@@]24OO3 [ARTEMOTIL] |  | 100% |  | Activity [4]: 100%; Activity [5]: Active
C[C@H](c1ccc(Oc2cccc3ccccc23)cc1)C1COC2(CCCC2)OO1 (stereo partly drawn) |  | 100% |  | Activity [4]: 100%; Activity [7]: 80%

— ChEMBL document CHEMBL5584228, “Novel saturated 1,2,4-trioxanes and their antimalarial activity against multidrug resistant Plasmodium yoelii nigeriensis in Swiss mice model via oral route” (2024)
